Measured values from patent US20090206245A1, “Mass analysis method using fine metal particles” (Shionogi CO., Ltd, priority 2004, published 2009).

Biological target: β1-4 galactosyltransferase (GalT)
Assay: Inhibiting activity of UDP against GalT reaction on a sugar chain (GlcNAc)-fine gold particle complex, tracked by MALDI-TOF MS
Format: biochemical
Conditions: GlcNAc-Au 50 μM, UDP-Gal 400 μM, four mU GalT, HEPES buffer (10 mM MnCl2, 0.15 M NaCl), 25° C., 60 minutes; from plot of FIG. 8
Protocol: 100 μL of MHEPES buffer solution (10 mM MnCl2, 0.15 M NaCl) of the sugar chain-fine gold particles (GlcNAc-Au:50 μM) produced in accordance with Example 4 and UDP-Gal (400 μM), was prepared. Four mU of β1-4 galactosyltransferase (GalT) was added to the buffer solution, and the sugar chain elongation reaction was tracked at 25° C. by using MALDI-TOF Mass spectroscopy. The reaction solution was not subjected to centrifugal filtration, but to MALDI-TOF mass spectrometry using 2,5-dihydroxybenzoic acid (DHB) as a matrix (FIG. 6). […] FIG. 7 indicates a plot representing temporal variation in extent of the sugar-chain elongation reaction, which was derived from the spectrum shown in FIG. 6.
100 μL of MHEPES buffer solution (10 mM MnCl2, 0.15 M NaCl) of the sugar chain-fine gold particles (GlcNAc-Au: 50 μM) produced in accordance with Example 4 and UDP-Gal (400 μM), was prepared. Four mU of β1-4 galactosyltransferase (GalT) and UDP (prepared at nine concentration levels in the range of 0-50 μM) was then added to the buffer solution, and the solution was subjected to reaction at 25° C. for 60 minutes.

Compound `O=c1ccn([C@@H]2O[C@H](COP(=O)(O)OP(=O)(O)O)[C@@H](O)[C@H]2O)c(=O)[nH]1` [UDP] has an IC50 of 300 µM.
